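Protocol summary: plate cells (96-well), add compound at 5 concentrations, incubate 48 h, interpolate endpoints linearly. Here, GI50 denotes the concentration required for 50% inhibition of growth.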 Activity calls are given as the source filed them. Cut-off read from the data, not from the text of the source: active = GI50 up to about 1.1 µM and inactive = higher.
What was measured:
Experiment in all cases: growth of human tumour cells (NCI), 48 h
HT-29 = test system: HT-29
MDA-MB-435 = test system: MDA-MB-435
HCC 2998 = test system: HCC 2998
UACC-62 = test system: UACC-62
SR = test system: SR
NCI-H460 = test system: NCI-H460
SK-MEL-2 = test system: SK-MEL-2
OVCAR-8 = test system: OVCAR-8
TK-10 = test system: TK-10
MOLT-4 = test system: MOLT-4
NCI-H226 = test system: NCI-H226
IGROV-1 = test system: IGROV-1
UO-31 = test system: UO-31
T47D = test system: T47D
SNB-19 = test system: SNB-19
A549 = test system: A549
SF-268 = test system: SF-268
M14 = test system: M14
KM12 = test system: KM12
OVCAR-3 = test system: OVCAR-3

Measured: GI50

COC(=O)CC1C=CC(C)(OC)OO1 (stereo not given)
inactive: HT-29 > 100 µM | MDA-MB-435 > 100 µM | HCC 2998 59.7 µM | UACC-62 49.9 µM | SR 58.5 µM | NCI-H460 4.84 µM | SK-MEL-2 > 100 µM | OVCAR-8 > 100 µM | TK-10 > 100 µM | MOLT-4 > 10 µM | NCI-H226 > 100 µM | IGROV-1 > 100 µM | UO-31 > 100 µM | T47D > 100 µM | SNB-19 > 100 µM | A549 26 µM | SF-268 > 100 µM | M14 > 100 µM | KM12 > 100 µM | OVCAR-3 87.7 µM

NC(=O)NCCCC(NC(=O)OCCCCCn1ccc(=O)[nH]c1=O)C(=O)O (stereo not given)
inactive: HT-29 > 100 µM | MDA-MB-435 > 100 µM | HCC 2998 > 100 µM | UACC-62 > 100 µM | SR > 100 µM | NCI-H460 > 100 µM | SK-MEL-2 > 100 µM | OVCAR-8 > 100 µM | TK-10 > 100 µM | MOLT-4 > 100 µM | NCI-H226 63.2 µM | IGROV-1 23.1 µM | UO-31 > 100 µM | T47D > 100 µM | SNB-19 > 100 µM | A549 > 100 µM | SF-268 > 100 µM | M14 > 100 µM | KM12 > 100 µM | OVCAR-3 > 100 µM

CC(=O)NC1C(OCc2ccccc2)OC(CO)C(O)C1OCC(=O)NC(C)C(=O)NC(CCC(=O)OCCNC(=O)c1cccc2cc3ccccc3nc12)C(N)=O (stereo not given)
inactive: HT-29 13 µM | MDA-MB-435 17.2 µM | HCC 2998 18.4 µM | UACC-62 15.7 µM | SR 8.22 µM | NCI-H460 8.95 µM | SK-MEL-2 26.4 µM | OVCAR-8 18 µM | TK-10 16.1 µM | MOLT-4 6.82 µM | NCI-H226 18.5 µM | IGROV-1 17.8 µM | UO-31 14.5 µM | T47D 22.5 µM | SNB-19 31.4 µM | A549 6.11 µM | SF-268 22.3 µM | M14 20.6 µM | KM12 21.9 µM | OVCAR-3 20.5 µM

FC1(F)ON2CCc3ccccc3C2[C@H]1c1ccccc1 (stereo not given in full)
inactive: HT-29 > 10 µM | MDA-MB-435 > 10 µM | HCC 2998 > 10 µM | UACC-62 > 10 µM | SR > 10 µM | NCI-H460 > 10 µM | SK-MEL-2 > 10 µM | OVCAR-8 39.9 µM | TK-10 > 10 µM | MOLT-4 > 10 µM | NCI-H226 35.8 µM | IGROV-1 > 10 µM | UO-31 > 100 µM | T47D 55.8 µM | SNB-19 > 10 µM | A549 > 10 µM | SF-268 > 10 µM | M14 82 µM | KM12 > 10 µM | OVCAR-3 21 µM

COc1ccc(N2C(=O)CC(=O)N(NC(=O)C(C)Oc3ccccc3C)C2=S)cc1 (stereo not given)
inactive: HT-29 > 100 µM | MDA-MB-435 > 100 µM | HCC 2998 > 100 µM | UACC-62 > 100 µM | SR > 100 µM | NCI-H460 > 100 µM | SK-MEL-2 > 100 µM | OVCAR-8 > 100 µM | TK-10 > 100 µM | MOLT-4 > 100 µM | NCI-H226 > 100 µM | IGROV-1 > 100 µM | UO-31 > 100 µM | T47D > 100 µM | SNB-19 > 100 µM | A549 > 100 µM | SF-268 > 100 µM | M14 > 100 µM | KM12 > 100 µM | OVCAR-3 > 100 µM

O=C(NCCCCNCCCNC(=O)c1cc(-c2ccccc2)nc2ccccc12)c1cc(-c2ccccc2)nc2ccccc12
inactive: HT-29 1.6 µM | MDA-MB-435 1.79 µM | HCC 2998 1.64 µM | UACC-62 2.12 µM | SR 2.35 µM | NCI-H460 1.91 µM | SK-MEL-2 1.91 µM | OVCAR-8 1.69 µM | TK-10 1.59 µM | MOLT-4 1.42 µM | NCI-H226 1.78 µM | IGROV-1 1.55 µM | UO-31 1.7 µM | T47D 1.87 µM | SNB-19 1.76 µM | A549 1.65 µM | SF-268 2.03 µM | M14 2.1 µM | KM12 1.7 µM | OVCAR-3 1.55 µM

COP(=O)(OC)C(C)(C)NC(=O)NC(F)(F)F
inactive: HT-29 > 100 µM | MDA-MB-435 > 100 µM | HCC 2998 > 100 µM | UACC-62 > 100 µM | SR > 100 µM | NCI-H460 > 100 µM | SK-MEL-2 > 100 µM | OVCAR-8 > 100 µM | TK-10 > 100 µM | MOLT-4 > 100 µM | NCI-H226 22.2 µM | IGROV-1 > 100 µM | UO-31 > 100 µM | T47D > 100 µM | SNB-19 70.1 µM | A549 > 100 µM | SF-268 > 100 µM | KM12 > 100 µM | OVCAR-3 > 100 µM
active: M14 0.0401 µM

Cc1nn(C(=O)c2ccccc2O)c2c1C(c1ccc([N+](=O)[O-])cc1)SC(=N)N2 (stereo not given)
inactive: HT-29 > 6.67 µM | MDA-MB-435 1.45 µM | HCC 2998 > 10 µM | UACC-62 2.03 µM | SR 4.83 µM | NCI-H460 3.79 µM | SK-MEL-2 > 5.46 µM | OVCAR-8 4 µM | TK-10 > 4.5 µM | MOLT-4 4.94 µM | NCI-H226 > 4.12 µM | IGROV-1 1.88 µM | UO-31 4.49 µM | T47D 5.71 µM | SNB-19 6.05 µM | A549 1.47 µM | SF-268 6.68 µM | M14 7.19 µM | KM12 5.36 µM | OVCAR-3 4.05 µM

O=c1cc(NNc2cccc3ccccc23)[nH]c(=O)[nH]1
inactive: HT-29 17.6 µM | MDA-MB-435 17.1 µM | HCC 2998 20 µM | UACC-62 17.5 µM | SR 2.61 µM | NCI-H460 18.8 µM | SK-MEL-2 15 µM | OVCAR-8 18 µM | TK-10 19.7 µM | MOLT-4 17.7 µM | NCI-H226 13 µM | IGROV-1 15.4 µM | UO-31 16.3 µM | T47D 10.2 µM | SNB-19 14.3 µM | A549 17.9 µM | SF-268 16.4 µM | M14 15.9 µM | KM12 16.4 µM | OVCAR-3 14 µM

C/C=C\C(C)=C/C(C)C(=O)CC(O)CC1CC(=O)NC(=O)C1 (stereo not given)
inactive: HT-29 24 µM | MDA-MB-435 28.4 µM | HCC 2998 33.5 µM | UACC-62 9.73 µM | SR 10.9 µM | NCI-H460 14.8 µM | SK-MEL-2 13.6 µM | OVCAR-8 8.71 µM | TK-10 49.2 µM | MOLT-4 4.79 µM | NCI-H226 35.5 µM | IGROV-1 19 µM | UO-31 20.1 µM | T47D 28.1 µM | SNB-19 17.8 µM | A549 21.5 µM | SF-268 10.5 µM | M14 13.6 µM | KM12 14.6 µM | OVCAR-3 22.3 µM
